# Source: US20150020915A1, “Antiperspirant Spray Devices and Compositions” (The Procter & Gamble Company, priority 2013, published 2015)
# Description: (§1) Solubility may be determined by measuring the amount of light transmittance (a light transmittance value) through a simple mixture of the non-volatile silicone fluid and liquid activation enhancer at the same weight/weight concentrations as in a final antiperspirant composition.
# as §1, with “Solubility of a liquid activation enhancer in a non-volatile silicone” for “Solubility”, “(light” for “(a light”
# The Spectronic Genesys 10 V is utilizes a tungsten-halogen light source and has a spectral bandwidth of 5 nm, a wavelength range of 325 to 1100 nm, accuracy of ±1 nm and a repeatability of ±0.5 nm. Readouts include absorbance, transmittance and concentration. The spectrophotometer is set to 640 nm wavelength and the percent transmittance mode/readout. Polystyrene spectrometer cuvettes having a 1 cm optical light path and transmittance between ˜340 nm and ˜900 nm are used. One suitable example of a spectrometer cuvette is available from VWR International LLC under Catalog #97000-584 having a 2.5 to 4.5 ml capacity. The spectrophotometer is calibrated according to the manufacturer's instructions using a reference cuvette and composition comprised of just the non-volatile silicone fluid of interest. For example, if the test composition comprises 50 centistoke dimethicone and 15% w/w of isopropyl myristate, then the spectrometer is calibrated using a cuvette containing just 50 centistoke dimethicone. Sample cuvettes are filled sufficiently with a test composition of a non-volatile silicone fluid and liquid activation enhancer so that the light path of the spectrophotometer passes through the test composition in the cuvette. The sample cuvettes are shaken well just prior to taking a light transmittance reading.
Compound,light transmittance value,solubility in 50 centistoke dimethicone (in words)
CCCCCCCCCCCCCCCCCC(=O)OCCCC [butyl stearate],about 100%,
CCCCCCCCCCCCCC(=O)OC(C)C [isopropyl myristate],about 101%,
mineral oil,,soluble in 50 centistoke dimethicone at some (lower) concentrations
PPG-14 butyl ether,,insoluble
CCCCCCCCCCC(CO)CCCCCCCC (centres unmarked) [octyldodecanol],,soluble in the 50 centistoke dimethicone at some (lower) concentrations

# Now from value to compound, other results behind:
light transmittance value,Compound,solubility in 50 centistoke dimethicone (in words)
about 101%,CCCCCCCCCCCCCCCC(=O)OC(C)C [isopropyl palmitate],
about 100%,CCCCCCCCCCCCCC(C)C [isohexadecane],soluble
